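All cell lines were grown in 96-well plates and treated with compound for 48 hours. TGI: concentration producing complete growth inhibition.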
tested on: OVCAR-8 ovarian; assay: inhibition of tumour cell growth, NCI panel, 48 h

SMILES	TGI
C=CCOc1ccc(C2C(C(=O)OCC)C(=O)CC(C)(O)C2C(=O)OCC)cc1OC (stereo not drawn)	> 100 µM
CC(C)=CCNc1ncnc2c1ncn2CCC#N	> 100 µM

tested on: 786-0 renal; assay: inhibition of tumour cell growth, NCI panel, 48 h

SMILES	TGI
C=C1C(=O)C=C[C@]2(C)CC[C@H]3C(=C)C(=O)O[C@@H]3[C@@H]12	3.28 µM
O=C1/C(=C/c2ccc(Cl)cc2)CSc2ccccc21	39.3 µM
CSc1ncnc2c1ncn2CCC#N	> 100 µM
CC(C)(Cl)C(Br)CCC(=CCCl)CBr (mixture of isomers)	3.77 µM
CC(=O)OCC1OC(n2c3c(cc(C#N)c2=S)CCCCC3)C(OC(C)=O)C(OC(C)=O)C1OC(C)=O (stereo not drawn)	> 100 µM
NC(CCC(=O)NC(CSCC1C(=O)Nc2ccccc21)C(=O)NCC(=O)O)C(=O)O (stereo not drawn)	8.55 µM
[N-]=[N+]=NC1=C(c2ccccn2)C(=O)c2cccc3cccc1c23	> 100 µM
O=C(O)c1ccc(OCc2nc3cc(C(F)(F)F)ccc3nc2-c2ccccc2)cc1	> 100 µM
CC1=C(CO)C(=O)O[C@@H]([C@@H](CO)[C@H]2CCC3C4C[C@@H](O)[C@@]5(O)CC=CC(=O)[C@]5(C)C4CC[C@@]32C)C1 (stereo partly drawn)	> 100 µM
CSc1cnc2ccccc2c1SC1CN(Cc2ccccc2)c2ccccc2C1=O (stereo not drawn)	> 100 µM
C=C1CN2CC(=C)CN(C1)CS(=O)(=O)N1CC(=C)CN(CC(=C)C1)S(=O)(=O)N1CC(=C)CN(CC(=C)C1)S(=O)(=O)C2	58.9 µM
O=C(O)/C=c1/c2ccccc2n2nc3ccccc3c12	> 100 µM
C=CC[C@]12C=C(OC)[C@@H](O)[C@](OC)(C(c3cc(OC)c4c(c3)OCO4)[C@H]1C)[C@H]2OC(C)=O (stereo partly drawn)	> 100 µM
C=C(Cl)C(C)(Cl)CCC(Br)C(C)(C)Cl (stereo not drawn)	31.3 µM
O=C1c2ccccc2C2(c3ccc(Cl)cc3)N[C@H]3CCCC[C@@H]3N12 (stereo partly drawn)	> 100 µM
COc1ccc2c(cnc3c4cc(OC)c(OC)cc4ccc23)c1	> 100 µM
Cn1c(COC(=O)Nc2ccccc2)c(COC(=O)Nc2ccccc2)c2ccc3cc(Cl)c(Cl)cc3c21	12.6 µM
CCNC(=O)Nc1cccc(NC(=O)NCC)n1	> 100 µM
C=CCOc1ccc(C2C(C(=O)OCC)C(=O)CC(C)(O)C2C(=O)OCC)cc1OC (stereo not drawn)	> 100 µM
CC(C)=CCNc1ncnc2c1ncn2CCC#N	> 100 µM

tested on: SK-MEL-5 melanoma; assay: inhibition of tumour cell growth, NCI panel, 48 h

SMILES	TGI
C=C1C(=O)C=C[C@]2(C)CC[C@H]3C(=C)C(=O)O[C@@H]3[C@@H]12	5.93 µM
O=C1/C(=C/c2ccc(Cl)cc2)CSc2ccccc21	46 µM
CSc1ncnc2c1ncn2CCC#N	> 100 µM
CC(C)(Cl)C(Br)CCC(=CCCl)CBr (mixture of isomers)	11.9 µM
CC(=O)OCC1OC(n2c3c(cc(C#N)c2=S)CCCCC3)C(OC(C)=O)C(OC(C)=O)C1OC(C)=O (stereo not drawn)	> 100 µM
NC(CCC(=O)NC(CSCC1C(=O)Nc2ccccc21)C(=O)NCC(=O)O)C(=O)O (stereo not drawn)	> 44.8 µM
[N-]=[N+]=NC1=C(c2ccccn2)C(=O)c2cccc3cccc1c23	22.1 µM
O=C(O)c1ccc(OCc2nc3cc(C(F)(F)F)ccc3nc2-c2ccccc2)cc1	> 100 µM
CC1=C(CO)C(=O)O[C@@H]([C@@H](CO)[C@H]2CCC3C4C[C@@H](O)[C@@]5(O)CC=CC(=O)[C@]5(C)C4CC[C@@]32C)C1 (stereo partly drawn)	> 100 µM
CSc1cnc2ccccc2c1SC1CN(Cc2ccccc2)c2ccccc2C1=O (stereo not drawn)	> 100 µM
C=C1CN2CC(=C)CN(C1)CS(=O)(=O)N1CC(=C)CN(CC(=C)C1)S(=O)(=O)N1CC(=C)CN(CC(=C)C1)S(=O)(=O)C2	48 µM
O=C(O)/C=c1/c2ccccc2n2nc3ccccc3c12	30.4 µM
C=CC[C@]12C=C(OC)[C@@H](O)[C@](OC)(C(c3cc(OC)c4c(c3)OCO4)[C@H]1C)[C@H]2OC(C)=O (stereo partly drawn)	> 100 µM
C=C(Cl)C(C)(Cl)CCC(Br)C(C)(C)Cl (stereo not drawn)	30.8 µM
O=C1c2ccccc2C2(c3ccc(Cl)cc3)N[C@H]3CCCC[C@@H]3N12 (stereo partly drawn)	> 100 µM
COc1ccc2c(cnc3c4cc(OC)c(OC)cc4ccc23)c1	> 100 µM
Cn1c(COC(=O)Nc2ccccc2)c(COC(=O)Nc2ccccc2)c2ccc3cc(Cl)c(Cl)cc3c21	16.1 µM
CCNC(=O)Nc1cccc(NC(=O)NCC)n1	> 100 µM
C=CCOc1ccc(C2C(C(=O)OCC)C(=O)CC(C)(O)C2C(=O)OCC)cc1OC (stereo not drawn)	> 100 µM
CC(C)=CCNc1ncnc2c1ncn2CCC#N	> 100 µM

tested on: HL-60(TB) leukemia; assay: inhibition of tumour cell growth, NCI panel, 48 h

SMILES	TGI
C=C1C(=O)C=C[C@]2(C)CC[C@H]3C(=C)C(=O)O[C@@H]3[C@@H]12	14.4 µM
O=C1/C(=C/c2ccc(Cl)cc2)CSc2ccccc21	64.6 µM
CSc1ncnc2c1ncn2CCC#N	> 100 µM
CC(C)(Cl)C(Br)CCC(=CCCl)CBr (mixture of isomers)	2.6 µM
CC(=O)OCC1OC(n2c3c(cc(C#N)c2=S)CCCCC3)C(OC(C)=O)C(OC(C)=O)C1OC(C)=O (stereo not drawn)	> 100 µM
NC(CCC(=O)NC(CSCC1C(=O)Nc2ccccc21)C(=O)NCC(=O)O)C(=O)O (stereo not drawn)	47.5 µM
[N-]=[N+]=NC1=C(c2ccccn2)C(=O)c2cccc3cccc1c23	> 100 µM
O=C(O)c1ccc(OCc2nc3cc(C(F)(F)F)ccc3nc2-c2ccccc2)cc1	> 100 µM
CC1=C(CO)C(=O)O[C@@H]([C@@H](CO)[C@H]2CCC3C4C[C@@H](O)[C@@]5(O)CC=CC(=O)[C@]5(C)C4CC[C@@]32C)C1 (stereo partly drawn)	> 100 µM
CSc1cnc2ccccc2c1SC1CN(Cc2ccccc2)c2ccccc2C1=O (stereo not drawn)	> 100 µM
C=C1CN2CC(=C)CN(C1)CS(=O)(=O)N1CC(=C)CN(CC(=C)C1)S(=O)(=O)N1CC(=C)CN(CC(=C)C1)S(=O)(=O)C2	> 100 µM
O=C(O)/C=c1/c2ccccc2n2nc3ccccc3c12	67.1 µM
C=CC[C@]12C=C(OC)[C@@H](O)[C@](OC)(C(c3cc(OC)c4c(c3)OCO4)[C@H]1C)[C@H]2OC(C)=O (stereo partly drawn)	> 100 µM
C=C(Cl)C(C)(Cl)CCC(Br)C(C)(C)Cl (stereo not drawn)	> 100 µM
O=C1c2ccccc2C2(c3ccc(Cl)cc3)N[C@H]3CCCC[C@@H]3N12 (stereo partly drawn)	> 100 µM
COc1ccc2c(cnc3c4cc(OC)c(OC)cc4ccc23)c1	> 100 µM
Cn1c(COC(=O)Nc2ccccc2)c(COC(=O)Nc2ccccc2)c2ccc3cc(Cl)c(Cl)cc3c21	10.4 µM
CCNC(=O)Nc1cccc(NC(=O)NCC)n1	> 100 µM
C=CCOc1ccc(C2C(C(=O)OCC)C(=O)CC(C)(O)C2C(=O)OCC)cc1OC (stereo not drawn)	> 100 µM
CC(C)=CCNc1ncnc2c1ncn2CCC#N	> 100 µM

tested on: U251 CNS; assay: inhibition of tumour cell growth, NCI panel, 48 h

SMILES	TGI
C=C1C(=O)C=C[C@]2(C)CC[C@H]3C(=C)C(=O)O[C@@H]3[C@@H]12	5.75 µM
O=C1/C(=C/c2ccc(Cl)cc2)CSc2ccccc21	24.6 µM
CC(C)(Cl)C(Br)CCC(=CCCl)CBr (mixture of isomers)	5.59 µM
CC(=O)OCC1OC(n2c3c(cc(C#N)c2=S)CCCCC3)C(OC(C)=O)C(OC(C)=O)C1OC(C)=O (stereo not drawn)	> 100 µM
NC(CCC(=O)NC(CSCC1C(=O)Nc2ccccc21)C(=O)NCC(=O)O)C(=O)O (stereo not drawn)	18.3 µM
[N-]=[N+]=NC1=C(c2ccccn2)C(=O)c2cccc3cccc1c23	> 100 µM
O=C(O)c1ccc(OCc2nc3cc(C(F)(F)F)ccc3nc2-c2ccccc2)cc1	> 100 µM
CSc1cnc2ccccc2c1SC1CN(Cc2ccccc2)c2ccccc2C1=O (stereo not drawn)	> 100 µM
C=C1CN2CC(=C)CN(C1)CS(=O)(=O)N1CC(=C)CN(CC(=C)C1)S(=O)(=O)N1CC(=C)CN(CC(=C)C1)S(=O)(=O)C2	> 100 µM
O=C(O)/C=c1/c2ccccc2n2nc3ccccc3c12	> 100 µM
C=CC[C@]12C=C(OC)[C@@H](O)[C@](OC)(C(c3cc(OC)c4c(c3)OCO4)[C@H]1C)[C@H]2OC(C)=O (stereo partly drawn)	> 100 µM
C=C(Cl)C(C)(Cl)CCC(Br)C(C)(C)Cl (stereo not drawn)	29.8 µM
O=C1c2ccccc2C2(c3ccc(Cl)cc3)N[C@H]3CCCC[C@@H]3N12 (stereo partly drawn)	> 100 µM
COc1ccc2c(cnc3c4cc(OC)c(OC)cc4ccc23)c1	> 100 µM
Cn1c(COC(=O)Nc2ccccc2)c(COC(=O)Nc2ccccc2)c2ccc3cc(Cl)c(Cl)cc3c21	5.01 µM
CCNC(=O)Nc1cccc(NC(=O)NCC)n1	> 100 µM
C=CCOc1ccc(C2C(C(=O)OCC)C(=O)CC(C)(O)C2C(=O)OCC)cc1OC (stereo not drawn)	> 100 µM
CC(C)=CCNc1ncnc2c1ncn2CCC#N	> 100 µM

tested on: CAKI-1 renal; assay: inhibition of tumour cell growth, NCI panel, 48 h

SMILES	TGI
C=C1C(=O)C=C[C@]2(C)CC[C@H]3C(=C)C(=O)O[C@@H]3[C@@H]12	8.53 µM
O=C1/C(=C/c2ccc(Cl)cc2)CSc2ccccc21	46.7 µM
CSc1ncnc2c1ncn2CCC#N	> 100 µM
CC(=O)OCC1OC(n2c3c(cc(C#N)c2=S)CCCCC3)C(OC(C)=O)C(OC(C)=O)C1OC(C)=O (stereo not drawn)	> 100 µM
NC(CCC(=O)NC(CSCC1C(=O)Nc2ccccc21)C(=O)NCC(=O)O)C(=O)O (stereo not drawn)	9.95 µM
[N-]=[N+]=NC1=C(c2ccccn2)C(=O)c2cccc3cccc1c23	> 100 µM
O=C(O)c1ccc(OCc2nc3cc(C(F)(F)F)ccc3nc2-c2ccccc2)cc1	19.6 µM
CC1=C(CO)C(=O)O[C@@H]([C@@H](CO)[C@H]2CCC3C4C[C@@H](O)[C@@]5(O)CC=CC(=O)[C@]5(C)C4CC[C@@]32C)C1 (stereo partly drawn)	> 100 µM
